Key:
[1] = target: Bn-VAKGL pentapeptide of filamin A (FLNA) (Homo sapiens, UniProt P21333); assay: FITC-NLX-based FLNA screening assay (FLNA peptide binding assay); conditions: 10 nM FITC-NLX
Protocol: The final assay volume is 100 μl.
Compounds are tested in triplicate or quadruplicate.

[2] = target: T1, mu opiate receptor (MOR) (Rattus norvegicus, UniProt P33535); assay: [35S]GTPγS binding assay using striatal membranes (MOR agonist activity); format: biochemical; set-up: MOR agonist activity, [35S]GTPγS binding to Gαo, 0.1 μM / MOR agonist activity, [35S]GTPγS binding to Gαo, 1 μM / MOR agonist activity, [35S]GTPγS binding to Gαo, 1 μM + BFNA: reference not given here; conditions: for MOR agonist activity, [35S]GTPγS binding to Gαo, 0.1 μM: 0.1 μM compound; for MOR agonist activity, [35S]GTPγS binding to Gαo, 0.1 μM / MOR agonist activity, [35S]GTPγS binding to Gαo, 1 μM: striatal membranes; for MOR agonist activity, [35S]GTPγS binding to Gαo, 1 μM + BFNA: 1 μM compound + 1 μM β-funaltrexamine; for MOR agonist activity, [35S]GTPγS binding to Gαo, 1 μM: 1 μM compound
T1 construct: from tissue; host or cells: striatal tissue (membrane preparation)
T1 sequence (P33535 whole entry): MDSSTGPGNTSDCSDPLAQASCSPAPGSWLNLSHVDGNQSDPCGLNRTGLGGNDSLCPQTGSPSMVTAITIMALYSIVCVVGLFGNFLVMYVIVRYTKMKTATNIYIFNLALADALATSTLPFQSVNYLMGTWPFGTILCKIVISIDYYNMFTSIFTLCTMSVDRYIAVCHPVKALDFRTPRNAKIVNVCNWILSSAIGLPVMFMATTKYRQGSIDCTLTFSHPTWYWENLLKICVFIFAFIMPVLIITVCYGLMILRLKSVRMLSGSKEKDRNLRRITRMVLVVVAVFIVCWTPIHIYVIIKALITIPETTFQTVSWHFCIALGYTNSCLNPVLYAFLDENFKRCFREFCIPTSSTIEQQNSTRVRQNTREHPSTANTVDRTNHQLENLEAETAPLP
Protocol: To assess the mu opiate receptor (MOR) agonist activity of positive compounds from the FLNA screening, compounds were tested in a [^35S]GTPγS binding assay using striatal membranes. Our previous study has shown that in striatal membranes, activation of MOR leads to an increase in [^35S]GTPγS binding to Gαo (Wang et al., 2005 Neuroscience 135:247-261).
Striatal tissue was homogenized in 10 volumes of ice cold 25 mM HEPES buffer, pH 7.4, which contained 1 mM EGTA, 100 mM sucrose, 50 μg/ml leupeptin, 0.04 mM PMSF, 2 μg/ml soybean trypsin inhibitor and 0.2% 2-mercaptoethanol. The homogenates were centrifuged at 800×g for 5 minutes and the supernatants were centrifuged at 49,000×g for 20 minutes. The resulting pellets were suspended in 10 volume of reaction buffer, which contained 25 mM HEPES, pH 7.5, 100 mM NaCl, 50 μg/ml leupeptin, 2 μg/ml soybean trypsin inhibitor, 0.04 mM PMSF and 0.02% […].
The resultant striatal membrane preparation (200 μg) was admixed and maintained (incubated) at 30° C. for 5 minutes in reaction buffer as above that additionally contained 1 mM MgCl2 and 0.5 nM [^35S]GTPγS (0.1 μCi/assay, PerkinElmer Life and Analytical Sciences) in a total volume of 250 μl and continued for 5 minutes in the absence or presence of 0.1-10 μM of an assayed compound of interest. The reaction was terminated by dilution with 750 μl of ice-cold reaction buffer that contained 20 mM MgCl2 and 1 mM EGTA and immediate centrifugation at 16,000×g for 5 minutes.
The resulting pellet was solubilized by sonicating for 10 seconds in 0.5 ml of immunoprecipitation buffer containing 0.5% digitonin, 0.2% sodium cholate and 0.5% NP-40. Normal rabbit serum (1 μl) was added to 1 ml of lysate and incubated at 25° C. for 30 minutes. Nonspecific immune complexes were removed by incubation with 25 μl of protein A/G-conjugated agarose beads at 25° C. for 30 minutes followed by centrifugation at 5,000×g at 4° C. for 5 minutes. The supernatant was divided and separately incubated at 25° C. for 30 minutes with antibodies raised against Gαo proteins (1:1,000 dilutions).
The immunocomplexes so formed were collected by incubation at 25° C. for 30 minutes with 40 μl of agarose-conjugated protein A/G beads and centrifugation at 5,000×g at 4° C. for 5 minutes. The pellet was washed and suspended in buffer containing 50 mM Tris-HCl, pH 8.0, and 1% NP-40. The radioactivity in the suspension was determined by liquid scintillation spectrometry. […] DAMGO (H-Tyr-D-Ala-Gly-N-MePhe-Gly-OH; 1 or 10 μM) was used as a positive control.

| SMILES | Percent inhibition of FITC-NLX binding, 0.01 μM ([1]; 0.01 μM compound) | Percent inhibition of FITC-NLX binding, 0.1 μM ([1]; 0.1 μM compound) | Percent inhibition of FITC-NLX binding, 1 μM ([1]; 1 μM compound) | MOR agonist activity, [35S]GTPγS binding to Gαo, 0.1 μM [2] | MOR agonist activity, [35S]GTPγS binding to Gαo, 1 μM + BFNA [2] | MOR agonist activity, [35S]GTPγS binding to Gαo, 1 μM [2] | inhibition at 0.01 µM ([1]; read-out: Percent inhibition of FITC-NLX binding, 0.01 μM compound) | inhibition at 0.1 µM ([1]; read-out: Percent inhibition of FITC-NLX binding, 0.1 μM compound) | inhibition at 1 µM ([1]; read-out: Percent inhibition of FITC-NLX binding, 1 μM compound) | % DAMGO + BFNA ([2]; 1 μM + BFNA, relative to DAMGO + BFNA) |
| --- | --- | --- | --- | --- | --- | --- | --- | --- | --- | --- |
| COc1c2c(cc3c1C(CC(=O)Cc1ccc(C#N)cc1)[N+](C)(C)CC3)OCO2 (stereo not shown) [B0012] | 39.4% | 46.9% | 51.7% | 167.4% | 145.1% | 212.0% |  |  |  |  |
| COc1cccc(OC)c1C(=O)CC1c2c(cc3c(c2OC)OCO3)CC[N+]1(C)C.[I-] (stereo not shown) [B0023] | 28.5% | 37.8% | 46.4% | 166.1% | 28.4% | 245.3% |  |  |  |  |
| COc1c2c(cc3c1C(CC(=O)CCc1ccc(F)cc1)[N+](C)(C)CC3)OCO2 (stereo not shown) [B0018] | 37.2% | 43.7% | 47.6% | 118.8% | 45.6% | 143.0% |  |  |  |  |
| COc1cc(F)ccc1C(=O)CC1c2c(cc3c(c2OC)OCO3)CC[N+]1(C)C (stereo not shown) [B0007] |  |  |  | 168.3% | 64.5% | 223.3% |  |  |  |  |
| COc1cc(C(=O)CC2c3c(cc4c(c3OC)OCO4)CC[N+]2(C)C)cc(OC)c1OC (stereo not shown) [B0037] | 47.4% | 53.0% | 52.4% | 119.8% | 106.2% | 186.0% |  |  |  |  |
| COc1ccc(CCC(=O)CC2c3c(cc4c(c3OC)OCO4)CC[N+]2(C)C)cc1OC.[I-] (stereo not shown) [B0042] | 40.8% | 46.4% | 51.6% | 69.9% | 43.1% | 107.5% |  |  |  |  |
| COc1ccc(CCC(O)CC2c3c(cc4c(c3OC)OCO4)CC[N+]2(C)C)cc1 (stereo not shown) [B0049] | 32.2% | 40.1% | 47.1% | 181.6% | 133.2% | 364.0% |  |  |  |  |
| COc1ccccc1CCC(=O)CC1c2c(cc3c(c2OC)OCO3)CC[N+]1(C)C (stereo not shown) [B0045] | 63.2% | 68.2% | 73.9% | 129.3% | 83.8% | 193.1% |  |  |  |  |
| COc1c2c(cc3c1C(CC(O)Cc1ccccc1C)N(C)CC3)OCO2 (stereo not shown) [B0054] |  |  |  | 157.8% | 111.0% | 186.7% | 25.6% | 32.6% | 43.3% |  |
| COc1c2c(cc3c1C(CC(=O)CCc1ccc(Cl)cc1)[N+](C)(C)CC3)OCO2 (stereo not shown) [B0017] | 28.3% | 36.6% | 44.6% | 99.6% | 49.6% | 122.0% |  |  |  |  |
| COc1c2c(cc3c1C(CC(=O)c1ccc(N4CCOCC4)cc1)[N+](C)(C)CC3)OCO2 (stereo not shown) [B0004] |  |  |  | 170.3% | 72.0% | 231.7% |  |  |  | 110.0% |
| COc1c2c(cc3c1C(CC(=O)/C=C/c1ccc(Cl)cc1)[N+](C)(C)CC3)OCO2 (stereo not shown) [B0019] | 34.3% | 41.0% | 49.0% | 101.0% | 81.4% | 256.5% |  |  |  |  |
| COc1c2c(cc3c1C(CC(=O)CCc1ccc(O)cc1)[N+](C)(C)CC3)OCO2.[I-] (stereo not shown) [B0028] | 38.2% | 42.8% | 49.1% | 199.1% | 55.0% | 357.7% |  |  |  |  |
| COc1c2c(cc3c1C(CC(=O)Cc1ccccc1C)[N+](C)(C)CC3)OCO2 (stereo not shown) [B0031] | 36.2% | 44.2% | 50.5% | 210.8% | 28.8% | 272.0% |  |  |  |  |
| COc1cc(OC)cc(C(=O)CC2c3c(cc4c(c3OC)OCO4)CC[N+]2(C)C)c1.[I-] (stereo not shown) [B0035] | 45.4% | 44.7% | 51.0% | 188.0% | 74.2% | 248.7% |  |  |  |  |
| COc1ccc(CCCCC2c3c(cc4c(c3OC)OCO4)CC[N+]2(C)C)cc1 (stereo not shown) [B0056] |  |  |  | 174.7% | 41.8% | 288.8% |  |  |  |  |
| COc1c2c(cc3c1C(CC(=O)c1ccc(C#N)cc1)[N+](C)(C)CC3)OCO2 (stereo not shown) [B0001] |  |  |  | 128.2% | 28.0% | 202.3% |  |  |  |  |
| COc1c2c(cc3c1C(CC(=O)c1cccc(C(F)(F)F)c1)[N+](C)(C)CC3)OCO2 (stereo not shown) [B0006] |  |  |  | 77.0% | 18.6% | 131.3% |  |  |  |  |
| COc1c2c(cc3c1C(CC(=O)Cc1ccccc1F)[N+](C)(C)CC3)OCO2.[I-] (stereo not shown) [B0055] |  |  |  | 162.1% | 117.5% | 338.5% |  |  |  |  |
| COc1ccc(CCC(=O)CC2c3c(cc4c(c3OC)OCO4)CCN2C)cc1 (stereo not shown) [B0047] |  |  |  | 187.8% | 68.4% | 235.6% |  |  |  |  |
| COc1c2c(cc3c1C(CC(=O)Cc1ccccc1C)N(C)CC3)OCO2 (stereo not shown) [B0053] |  |  |  | 160.2% | 134.3% | 299.8% |  |  |  |  |
| COc1ccc(CCC(=O)CC2c3c(cc4c(c3OC)OCO4)CC[N+]2(C)C)cc1 (stereo not shown) [B0016] |  |  |  | 167.7% | 72.2% | 213.6% |  |  |  |  |

Reference: patent publication US20100280061A1, “NOVEL ANALGESIC THAT BINDS FILAMIN A” (priority 2009, published 2010)
